Here are results for two compounds from US20110269718A1, “PHARMACEUTICAL COMPOSITION CONTAINING MALATHION AND VOLATILE CYCLIC SILICONE” (priority 2010, published 2011).

One data set concerns nits. The experiment in a line: Nit-killing activity of volatile silicone oil itself (stated, no method). Format: in vivo, Pediculus humanus var capitis.
The subject of the next data set is lice. Description: Pediculicidal activity of volatile silicone oil itself (stated, no method). Format: in vivo, Pediculus humanus var capitis.
Data set [1] is described as follows: Stability of malathion compositions, degradation measured by HPLC. Format: physicochemical. The protocol: The inventors measured malathion degradation by HPLC. The HPLC method was reverse-phase HPLC with UV detection (210 nm). The column used is an xTERRA C18 with a water/acetonitrile gradient and a flow rate of 0.6 ml/min. The malathion compositions tested comprise either malathion on its own, or a composition of 50% malathion and 50% isopropanol, or a composition of 50% malathion and 50% polydimethylcyclosiloxane, or a composition of 33% malathion with 33% isopropanol and 33% polydimethylcyclosiloxane. These compositions also contain excipients such as povidone as viscosity agent.
The stability of these compositions was assessed for 114 hours at 60° Celsius (Table 1).

As to `C[Si]1(C)O[Si](C)(C)O[Si](C)(C)O[Si](C)(C)O[Si](C)(C)O1` [decamethylcyclopentasiloxane], the nit-killing activity with nits is given as approximately 70%. Moreover, the pediculicidal activity in the data set on lice came out at 100%.

For `CCOC(=O)CC(SP(=S)(OC)OC)C(=O)OCC` (stereo not shown) [Malathion alone, malathion], the entries for the “Malathion content (%)” value in data set [1] (T0), in data set [1] (T 72 hrs 60° C.) and in data set [1] (T 114 hrs 60° C.) were 100.90%, 100.3% and 91%, respectively. Besides, the “Malathion loss (%)” value in data set [1] (T 72 hrs 60° C.) was “(−0.1) %”; in data set [1] (T 114 hrs 60° C.) it was “(−9.8) %”.
